In BindingDB's records for doi:10.1016/S0960-894X(01)80909-4 (1993):

Assays:
[1] = target: Diamine oxidase (Sus scrofa); experiment: Tested for ability to competitively inhibit hog kidney diamine oxidase (DAO) in a spectrometric assay
[2] = target: Diamine oxidase (Sus scrofa); experiment: as above; remark: listed apart in the source

SMILES | Ki [1] | Ki [2]
NCC=Cc1cnc[nH]1 | 170 nM | 200 nM
C=C(CN)c1cnc[nH]1 [2-(1H-Imidazol-4-yl)-allylamine] | 7100 nM | –
NCC#Cc1cnc[nH]1 [3-(1H-Imidazol-4-yl)-prop-2-ynylamine] | 1700 nM | –
